Results taken from US20250170090A1, “METHOD FOR PREVENTING OR TREATING DISEASE OR DISORDER ASSOCIATED WITH ANTINEOPLASTIC AGENT” (ONQUALITY PHARMACEUTICALS CHINA LTD., priority 2022, published 2025).
Read-outs that look alike come from different tables or passages of the source.

Experiments:
[1] = system: anti-tumor agent-induced hand-foot syndrome; experiment: Comparison of different mechanism compounds in preventing sorafenib-induced hand-foot syndrome in rats (Table 6); type: in vivo; details: Sorafenib 80 mg/kg once a day, Days 15
Protocol: After the rats (about 200 g) were acclimated for one week, they were divided into groups of 10 and then subjected to gavage administration experiments. The anti-tumor agent (the anti-tumor agent modeled by sorafenib) was dissolved in a mixed solution of Cremophor EL:ethanol=1:1, and diluted to the required concentration with PBS (diluted about 3 times with PBS solution) before gavage administration. After gavage, the hind paws of the rats were treated with ointments of different mechanisms (NO-releasing agent group, NO-releasing agent combined with clinical drug group, NSAID group), while the control group was treated with a blank ointment. After the application of the ointment, the rats were placed in a fixed cylinder for 4 hours. After 4 hours, the rats were released, and the residual drugs in the application site were wiped off with clean water, and the rats were returned to the cage. Different treatment groups were only applied once a day. Gavage and ointment application were repeated every day until the end of the experiment.
Table 6 lists the animal experimental combinations of various anti-tumor agents and ointments from different treatment groups, as well as the corresponding experimental results (where the value in the control rate column=the incidence rate of hand-foot syndrome in the blank group−the incidence rate of hand-foot syndrome in the treatment group).

[2] = system: HUVEC cells; experiment: CCK-8 cell viability: alleviation of proliferative toxicity of anti-tumor agents on HUVEC cells (Tables 7-1, 7-2); type: cell-based; details: Homo sapiens, 24 h, NO-NSAID 100 μM, percentage increase in viable cells vs anti-tumor agent alone, read-out: Response rate % (average)
Protocol: The cultured HUVEC cells were digested the suspended, counted, and seed into a 96-well plate with 5,000-10,000 cells per well. The wells are divided into the following groups: blank control group, anti-tumor agent group, anti-tumor agent+NO-NSAID group, anti-tumor agent solvent group, NO-NSAID control group. Wherein each well of each group contained a basic medium, and the final liquid volume contained in each well was about 100 μL. The grouping situation was as follows: • 1) Blank control group: no solution was added except normally replacing the medium; • 2) Anti-tumor agent group: added the anti-tumor agent solution (the final concentration was shown in Table 7-1 and Table 7-2, the solvent of the anti-tumor agent solution was DMSO); • 3) Anti-tumor agent+NO-NSAID group: added the anti-tumor agent solution and the NO-NSAID solution (the final concentrations of anti-tumor agent and NO-NSAID were shown in Table 7-1 and Table 7-2, and according to the solubility of NO-NSAID, the solvent of NO-NSAID solution was selected as ethanol or sterile water, and minor volume differences in each group were adjusted by added the corresponding solvent); • 4) Anti-tumor agent solvent group: an equal volume of DMSO as contained in the corresponding anti-tumor agent solution in Group 2) was added; • 5) NO-NSAID control group: the same volume and type of solvent (for example, ethanol or sterile water) corresponding to the NO-NSAID contained in group 3) was added.
The anti-tumor agent solvent group was not involved in data processing and was only used as a reference for evaluating experimental system error. The NO-NSAID solvent control group was used for data correction to eliminate the influence of the solvent on the results.
After culturing for 24-48 hours, the Cell Counting Kit-8 (CCK-8) detection kit (C0037, Shanghai Beyotime Biotechnology Co., Ltd., Beyotime Biotechnology) was used to determine the cell viability. This allows for the calculation of the proliferative toxicity of anti-tumor agent on cell and the mitigating effect of NO-NSAID on proliferative toxicity. The results were statistically analyzed and plotted using GraphPad Prism 6.0 software and t test.

[3] = system: hand-foot syndrome induced by anti-tumor agents; experiment: Prevention of hand-foot syndrome induced by anti-tumor agents in rats, NO-NSAID ointment on hind paws (Table 2-2); type: in vivo, SD rats; details: Rattus norvegicus, topical, 120 h, Sorafenib 80 mg/kg once a day, Days 5, read-out: Control rate
Source text: A rat animal model was constructed, and the anti-tumor agents shown in Table 2-2 were respectively administered to 8-week-old female SD rats by daily oral gavage. […] Therefore, rats serve as an excellent animal model for simulating side effects (such as hand-foot syndrome) caused by anti-tumor agents.
After the rats (about 200 g) were fed and adapted for one week, they were divided into a NO-NSAID group and a control group, with 10 rats in each group, and a gavage administration test was conducted. The various anti-tumor agents were dissolve in a mixed solution of Cremophor EL:ethanol=1:1. The anti-tumor agent solution were diluted with PBS to the required concentration (about 3 times with PBS solution) before gavage administration. After gavage, an ointment containing NO-NSAID was applied to the hind paws of the rats, while the control group was applied with a blank ointment. After application, the rats were placed in a fixed cylinder for 4 hours. After 4 hours, the rats were released and the residual ointment was wiped off with clean water, then the rats were returned to the cage. The gavage frequency of inhibitors was shown in Table 2-2, and NO-NSAID was only applied once a day. The gavage and application operations were repeated daily until the end of the experiment.
Table 2-2 lists the animal experimental combinations of various anti-tumor agents and NO-NSAID ointments, as well as the corresponding experimental results (wherein the value in the control rate column=the hand-foot syndrome incidence rate in the blank group−the hand-foot syndrome incidence rate in the treatment group).

SMILES: CC(=O)Oc1ccccc1C(=O)O [Acetylsalicylic acid]
- Control rate ([1]; ointment 1.00% wt): 14.29%

SMILES: COc1ccc2cc(C(C)C(=O)OCC(CO[N+](=O)O)C[N+](=O)[O-])ccc2c1 (centres unmarked) [Compound A9]
- activation at 100 µM ([2]; Afatinib (10 μM)): 32%
- activation at 100 µM ([2]; Anlotinib (5 μM)): 58%
- activation at 100 µM ([2]; Apatinib (10 μM)): 62%
- activation at 100 µM ([2]; Axitinib (10 μM)): 45%
- activation at 100 µM ([2]; Cabozantinib (5 μM)): 0%
- activation at 100 µM ([2]; Dabrafenib (10 μM)): 35%
- activation at 100 µM ([2]; Dacomitinib (5 μM)): 39%
- activation at 100 µM ([2]; Encorafenib (5 μM)): 15%
- activation at 100 µM ([2]; Erdafitinib (10 μM)): 42%
- activation at 100 µM ([2]; Everolimus (5 μM)): 7%
- activation at 100 µM ([2]; Famitinib (5 μM)): 33%
- activation at 100 µM ([2]; Fruquintinib (10 μM)): 56%
- activation at 100 µM ([2]; Gefitinib (10 μM)): 40%
- activation at 100 µM ([2]; Infigratinib (15 μM)): 29%
- activation at 100 µM ([2]; Lapatinib (5 μM)): 40%
- activation at 100 µM ([2]; Lenvatinib (10 μM)): 43%
- activation at 100 µM ([2]; Olmutinib (10 μM)): 42%
- activation at 100 µM ([2]; Regorafenib (5 μM)): 40%
- activation at 100 µM ([2]; Selumetinib (5 μM)): 36%
- activation at 100 µM ([2]; Sorafenib (5 μM)): 48%
- activation at 100 µM ([2]; Sunitinib (5 μM)): 16%
- activation at 100 µM ([2]; Vemurafenib (5 μM)): 39%
- responders at 1 % ([3]; ointment 1% wt): 28.6%
- responders at 5 % ([3]; ointment 5% wt): 33.3%

SMILES: CC(C(=O)OCC(CO[N+](=O)[O-])O[N+](=O)[O-])c1ccc(-c2ccccc2)c(F)c1 (centres unmarked) [Compound A10]
- activation at 100 µM ([2]; Afatinib (10 μM)): 56%
- activation at 100 µM ([2]; Anlotinib (5 μM)): 27%
- activation at 100 µM ([2]; Apatinib (10 μM)): 58%
- activation at 100 µM ([2]; Axitinib (10 μM)): -7%
- activation at 100 µM ([2]; Cabozantinib (5 μM)): 49%
- activation at 100 µM ([2]; Dabrafenib (10 μM)): 42%
- activation at 100 µM ([2]; Dacomitinib (5 μM)): 37%
- activation at 100 µM ([2]; Encorafenib (5 μM)): 33%
- activation at 100 µM ([2]; Erdafitinib (10 μM)): 23%
- activation at 100 µM ([2]; Everolimus (5 μM)): 21%
- activation at 100 µM ([2]; Famitinib (5 μM)): 49%
- activation at 100 µM ([2]; Fruquintinib (10 μM)): 59%
- activation at 100 µM ([2]; Gefitinib (10 μM)): 40%
- activation at 100 µM ([2]; Infigratinib (15 μM)): 32%
- activation at 100 µM ([2]; Lapatinib (5 μM)): 32%
- activation at 100 µM ([2]; Lenvatinib (10 μM)): 57%
- activation at 100 µM ([2]; Olmutinib (10 μM)): 48%
- activation at 100 µM ([2]; Regorafenib (5 μM)): 48%
- activation at 100 µM ([2]; Selumetinib (5 μM)): 46%
- activation at 100 µM ([2]; Sorafenib (5 μM)): 13%
- activation at 100 µM ([2]; Sunitinib (5 μM)): 21%
- activation at 100 µM ([2]; Vemurafenib (5 μM)): 63%

SMILES: CC(C)Cc1ccc(C(C)C(=O)O)cc1 (centres unmarked) [Ibuprofen]
- Control rate ([1]; ointment 2.00% wt): 0%

SMILES: COc1ccc2cc([C@H](C)C(=O)O)ccc2c1 [Naproxen]
- Control rate ([1]; ointment 2.50% wt): 16.67%

SMILES: O=[N+]([O-])OCC(CO[N+](=O)[O-])O[N+](=O)[O-] [Nitroglycerin]
- Control rate ([1]; ointment 0.20% wt): 60%
